Measurements reported in patent US20110123623A1, “RHAMNOLIPID MECHANISM” (priority 2009, published 2011).

What was measured:
[1] = system: neonatal human keratinocytes; test: Neonatal human keratinocyte cell culture (proliferation, viability, apoptosis); assay type: cell-based
Method: On the contrary, Di-rhamnolipid W3CTS in the presence of serum and at high concentration of calcium increased the proliferation and the viability of keratinocytes and decreased the caspase activity. At the concentration of 50 μg/ml, Di-rhamnolipid W3CTS maximally stimulated the proliferation (34%) and the viability of keratinocytes (25%) as compared to control, and decreased the apoptosis (49%).

[2] = system: Guinea pig lung LTC4 synthetase; test: Leukotriene C4 synthetase inhibition (EIA); assay type: biochemical; details: highest concentration 1,000 μM/ml; DMSO 0.5%
Method: Leukotriene C4 (LTC4) synthetase is involved in the formation of LTC4 from LTA4. Taken together with other assays for enzymes involved in the lipoxygenase pathway (e.g. 5-lipoxygenase, LTA4 hydrolase), a locus of action can be established for agents which inhibit the formation of leukotrienes. Guinea pig lung LTC4 synthetase was used. Test compound and/or vehicle was pre-incubated with 180 μg/ml enzyme in phosphate buffer pH 7.8 for 15 minutes at 37° C. The reaction is initiated by the addition of 2.5 μg/ml LTA4 methyl ester for another 30 minute incubation period and terminated by further addition of ice-cold methanol. Determination of the amount of LTC4 formed is read spectrophotometrically by enzyme immunoassay kit (EIA). W3CTS was screened at 1,000; 100; 10; and 1 μM/ml. Solvent was DMSO 0.5%. Sulfazine was used as a reference. Inhibition was 81% at the highest concentration of 1,000 μM/ml.

[3] = target: human dopamine D2L (human recombinant) (Homo sapiens, UniProt P14416); test: Dopamine D2L receptor binding of [3H]Spiperone; details: 100 μM in 0.5 DMSO
Sequence of human dopamine D2L (human recombinant) (P14416 whole entry): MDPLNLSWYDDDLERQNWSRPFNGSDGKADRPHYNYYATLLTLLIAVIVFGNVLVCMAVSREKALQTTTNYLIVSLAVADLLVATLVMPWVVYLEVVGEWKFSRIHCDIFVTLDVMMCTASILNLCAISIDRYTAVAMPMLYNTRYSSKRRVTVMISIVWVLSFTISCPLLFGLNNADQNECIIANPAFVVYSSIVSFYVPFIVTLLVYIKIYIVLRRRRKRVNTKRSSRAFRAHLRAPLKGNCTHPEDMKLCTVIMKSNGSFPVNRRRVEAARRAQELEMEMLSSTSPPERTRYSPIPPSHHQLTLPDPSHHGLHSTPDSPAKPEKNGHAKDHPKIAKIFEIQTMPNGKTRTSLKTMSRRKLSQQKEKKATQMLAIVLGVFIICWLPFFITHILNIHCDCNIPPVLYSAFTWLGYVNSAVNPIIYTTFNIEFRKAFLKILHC
Method: At the concentration of 100 μM Di-rhamnolipid W3CTS in 0.5% DMSO, Di-rhamnolipid W3CTS inhibited 100% dopamine D1 (human recombinant) binding of [^3H] SCH23390. At the same concentration of 100 μM W3CTS in 0.5 DMSO measuring binding of [^3H]Spiperone to human dopamine D2L (human recombinant) was inhibited by 53%.

female ICR mice = test: Immunostimulation (cellular): oxazolone-induced delayed type hypersensitivity; assay type: in vivo, mouse; details: oxazolone-induced DTH
Description: Immunostimulation (cellular): Oxazolone-induced delayed type hypersensitivity of female ICR mice was negative.

C. albicans = test: Immunomodulation activity: C. albicans challenge survival; assay type: in vivo, mouse; details: 100 mg/kg i/p 24 hours before i/v C. albicans challenge; ICR male mice
Method: Di-rhamnolipid W3CTS was administered i/p (100 mg/kg) to groups of 10 ICR derived male mice weighing 24±2 g at 24 hours before i/v challenge with a suspension of C. albicans (1×10^7 cfu/mouse) sufficient to result in 90-100% mortality within 10 days in vehicle treated animals. Survival of 20 percent or more (≧20) of the animals is considered significant and indicates possible immunomodulation activity. Reference agent was lipopolysaccharide 0.3 mg/kg i/p.

female and male mice = test: Blood findings after one single i/v dose; assay type: in vivo, mouse; details: 75 mg/kg single i/v dose
Method: Blood findings in female and male mice treated i/v with one single dose of 75 mg/kg of Di-rhamnolipid W3CTS
Monocytes were increased in treated mice up to 100% after 4th day and 29th

[4] = system: normal Sprague-Dawley rats; test: Full-thickness burn wounds, topical treatment; assay type: in vivo, rat
Method: The effects of Di-rhamnolipid W3CTS on full-thickness burn wounds in normal Sprague-Dawley rats.
Di-rhamnolipid W3CTS was prepared in a eucerine ointment applied topically on full-thickness burn wounds in normal Sprague-Dawley rats covering 5% of the whole skin area. The rate of wound closure was measured over the period of 45 days. The collagen content was evaluated microscopically, by performing densitometric analysis on Verhoeff's stained histopathological slides of wound biopsies taken at the end of 45th day of di-rhamnolipid treatment. The treatment of full thickness-burn wounds covering 5% of the whole body skin area with topical applications (2 per day) of 0.1% di-rhamnolipid in eucerine ointment accelerated the closure of wounds on day 21 of the treatment by 32% compared to the control (p<0.05). […] The results of this study raise the possibility of potential efficacy of di-rhamnolipid in accelerating normal wound healing and perhaps in overcoming defects associated with healing failure in chronic wounds.

[5] = system: chronic decubitus ulcer in humans; test: Treatment of chronic decubitus ulcer; assay type: in vivo, human; details: topical 0.1% eucerin ointment; single case
Description: Treatment of Chronic Decubitus Ulcer with Di-Rhamnolipid W3CTS

## CCCCCCCC(CC(=O)O)OC(=O)CC(CCCCCCC)OC1OC(C)C(O)C(O)C1OC1OC(C)C(O)C(O)C1O (stereo not drawn) [Di-rhamnolipid W3CTS]
[1]; 50 μg/ml, serum, high calcium
  decrease of apoptosis of keratinocytes: 49%
  stimulation of proliferation of keratinocytes vs control: 34%
  stimulation of viability of keratinocytes vs control: 25%
[1]; 200 μg/ml and 500 μg/ml, causing necrosis
  cell proliferation and viability, keratinocytes: fully inhibited cell proliferation and viability
[1]; without serum, low calcium, 100 μg/ml, caused necrosis
  proliferation and viability of keratinocytes: fully inhibited proliferation and viability
[2]
  Inhibition of LTC4 synthetase: 81%
[3]
  inhibition at 100 µM: 53%
Female ICR mice
  Immunostimulation (cellular): negative
C. albicans
  immunomodulation activity (survival of 20 percent or more considered significant): possible significant immunomodulation activity
Female and male mice; after 4th day and 29th
  increase of monocytes: up to 100%
Female and male mice; after 29 days
  increase of neutrophils in blood: 43.61%
Female and male mice; fourth day
  decrease of lymphocytes: 24.15%
  increase of neutrophils in blood: 51.77%
Female and male mice; twenty nine days
  decrease of lymphocytes: 24.60%
[4]; 0, 1% in eucerine, biopsies at end of 45th day, p<0.05
  decrease of collagen content in burn wounds vs vehicle: 47.5%
[4]; 0.1% in eucerine ointment, 2 per day topical, day 21, p<0.05
  acceleration of closure of wounds vs control: 32%
[4]; 0.1% ointment, day 35
  wound closure: wounds closed in all animals
[5]
  healing of chronic decubitus ulcer: profound beneficial effect on the healing
